Experimental data published in ChEMBL document CHEMBL4732062, “Protease activated receptor 4 (PAR4) antagonists: Research progress on small molecules in the field of antiplatelet agents” (Eur J Med Chem, 2021).
One block for each compound: values may come before it.

Key:
[1] = Inhibition of thrombin-induced platelet aggregation in human platelet-rich plasma incubated for 1 min followed by thrombin addition; assay type: functional
[2] = Inhibition of PAF-induced platelet aggregation in human platelet-rich plasma incubated for 1 min followed by PAF addition; assay type: functional
[3] = Inhibition of arachidonic acid-induced platelet aggregation in human platelet-rich plasma incubated for 1 min followed by arachidonic acid addition; assay type: functional, cell-based
[4] = Inhibition of collagen-induced platelet aggregation in human platelet-rich plasma incubated for 1 min followed by collagen addition; assay type: functional
Cynomolgus monkey [5] = assay: Antithrombotic activity in cynomolgus monkey model of electrolytic carotid artery thrombosis assessed as reduction in thrombus weight at 0.5 mg/kg, PO administered once daily for 3 days measured at 2 hrs post last dose relative to control; assay type: functional, Macaca fascicularis; set-up: scale not given: the % may be the effect or the level left; settings: time 3 day
[6] = Antagonist activity at PAR4 in cynomolgus monkey whole blood assessed as inhibition of Ala-(L-4-F-Phe)-Pro-Gly-Trp-Leu-Val-Lys-Asn-Gly-induced platelet aggregation preincubated for 10 mins followed by Ala-(L-4-F-Phe)-Pro-Gly-Trp-Leu-Val-Lys-Asn-Gly stimulation; assay type: tissue-based; settings: Macaca fascicularis
Rhesus monkey [7] = assay: Antithrombotic activity in monkey assessed as increase in mesenteric artery bleeding time at 0.5 mg/kg administered as single dose cotreated with aspirin measured at 2 hrs post dose relative to control; assay type: functional, Macaca mulatta
Rhesus monkey [8] = assay: Antithrombotic activity in monkey assessed as increase in mesenteric artery bleeding time at 0.05 to 0.5 mg/kg administered as single dose measured at 2 hrs post dose relative to control; assay type: functional, Macaca mulatta; settings: dose 0.05-0.5 mg/kg
Rhesus monkey [9] = assay: Antithrombotic activity in monkey model of electrolytic carotid artery thrombosis assessed as reduction in thrombus weight at 0.5 mg/kg administered as single dose measured at 2 hrs post dose relative to control; assay type: functional, Macaca mulatta; set-up: scale not given: the % may be the effect or the level left
Rhesus monkey [10] = assay: Antithrombotic activity in monkey assessed as increase in mesenteric artery bleeding time at 0.1 mg/kg administered as single dose cotreated with aspirin measured at 2 hrs post dose relative to control; assay type: functional, Macaca mulatta
Rhesus monkey [11] = assay: Antithrombotic activity in monkey model of electrolytic carotid artery thrombosis assessed as reduction in thrombus weight at 0.1 mg/kg administered as single dose measured at 2 hrs post dose; assay type: functional, Macaca mulatta; set-up: scale not given: the % may be the effect or the level left
[12] = biological target: T1, Proteinase-activated receptor 4 (Homo sapiens, UniProt Q96RI0); assay: Inhibition of human PAR4 expressed in HEK293 cells assessed as Ala-(L-4-F-Phe)-Pro-Gly-Trp-Leu-Val-Lys-Asn-Gly-induced inhibition of calcium mobilization preincubated for 30 mins followed by Ala-(L-4-F-Phe)-Pro-Gly-Trp-Leu-Val-Lys-Asn-Gly stimulation by FLIPR method; assay type: functional, cell-based
T1 sequence (Q96RI0 whole entry): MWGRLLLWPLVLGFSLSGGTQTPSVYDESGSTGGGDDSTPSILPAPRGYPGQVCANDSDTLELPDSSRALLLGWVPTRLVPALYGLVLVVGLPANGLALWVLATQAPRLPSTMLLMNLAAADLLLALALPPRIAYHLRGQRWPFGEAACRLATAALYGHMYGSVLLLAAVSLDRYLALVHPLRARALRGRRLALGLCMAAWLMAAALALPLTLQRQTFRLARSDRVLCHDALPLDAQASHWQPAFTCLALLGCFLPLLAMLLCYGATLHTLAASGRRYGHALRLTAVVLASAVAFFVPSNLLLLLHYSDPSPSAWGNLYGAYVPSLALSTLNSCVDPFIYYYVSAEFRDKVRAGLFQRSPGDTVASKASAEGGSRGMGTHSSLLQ

Rhesus monkey [13] = assay: Antithrombotic activity in monkey model of electrolytic carotid artery thrombosis assessed as reduction in thrombus weight at 0.05 mg/kg administered as single dose measured at 2 hrs post dose; assay type: functional, Macaca mulatta; set-up: scale not given: the % may be the effect or the level left
Cynomolgus monkey [14] = assay: Antithrombotic activity in cynomolgus monkey model of electrolytic carotid artery thrombosis assessed as reduction in thrombus weight at 4 mg/kg/hr, iv administered as single dose measured at 2 hrs post dose relative to control; assay type: functional, Macaca fascicularis; set-up: scale not given: the % may be the effect or the level left
Rhesus monkey [15] = assay: Antithrombotic activity in monkey model of electrolytic carotid artery thrombosis assessed as reduction in thrombus weight at 0.1 mg/kg administered as single dose cotreated with aspirin measured at 2 hrs post dose relative to control; assay type: functional, Macaca mulatta; set-up: scale not given: the % may be the effect or the level left
Rhesus monkey [16] = assay: Antithrombotic activity in monkey assessed as increase in mesenteric artery bleeding time at 4 mg/kg/hr, iv administered as single dose measured at 2 hrs post dose relative to control; assay type: functional, Macaca mulatta
Rhesus monkey [17] = assay: Antithrombotic activity in monkey model of electrolytic carotid artery thrombosis assessed as reduction in thrombus weight at 0.5 mg/kg administered as single dose cotreated with aspirin measured at 2 hrs post dose relative to control; assay type: functional, Macaca mulatta; set-up: scale not given: the % may be the effect or the level left
Cynomolgus monkey [18] = assay: Antithrombotic activity in cynomolgus monkey model of electrolytic carotid artery thrombosis assessed as increase in mesenteric bleeding time at 1 mg/kg, PO administered once daily for 3 days measured at 2 hrs post last dose; assay type: functional, Macaca fascicularis; settings: time 3 day
Cynomolgus monkey [19] = assay: Antithrombotic activity in cynomolgus monkey model of electrolytic carotid artery thrombosis assessed as increase in provoked kidney bleeding time at 1 mg/kg, PO administered once daily for 3 days measured at 2 hrs post last dose; assay type: functional, Macaca fascicularis; settings: time 3 day

SMILES: COC(=O)c1ccc(-c2nn(Cc3ccccc3)c3cc(C)ccc23)o1
IC50 [1]: 126 µM
IC50 [2]: 76.3 µM
IC50 [3]: 32.4 µM
IC50 [4]: 59.3 µM

SMILES: COC(=O)c1ccc(-c2nn(Cc3ccccc3)c3cc4c(cc23)OCO4)o1
IC50 [1]: > 270 µM
IC50 [2]: > 270 µM
IC50 [3]: 92.3 µM
IC50 [4]: 157 µM

SMILES: CCOC(=O)c1cccc(-c2nn(Cc3ccccc3)c3ccccc23)c1
IC50 [1]: > 270 µM
IC50 [2]: > 270 µM

SMILES: COc1cc(OCc2nc(N3CCOCC3)sc2C)c2cc(-c3cn4nc(OC)sc4n3)oc2c1
Activity (Cynomolgus monkey [5]): 50%
IC50 [6]: 0.0021 µM

SMILES: CC(=O)Oc1ccccc1C(=O)O [ASPIRIN]
Activity (Cynomolgus monkey [14]): 12%
Activity (Rhesus monkey [15]): 50%
fold change (FC) (Rhesus monkey [16]): 2.2
Activity (Rhesus monkey [17]): 89%

SMILES: COC(=O)[C@H](c1ccccc1Cl)N1CCc2sccc2C1 [CLOPIDOGREL]
fold change (FC) (Cynomolgus monkey [18]): >10
fold change (FC) (Cynomolgus monkey [19]): >10

Continued, in another order:

IC50 [1]: > 270 µM
IC50 [2]: > 270 µM
SMILES: COC(=O)c1ccc(-c2nn(-c3ccccc3)c3ccccc23)o1

IC50 [3]: 185 µM
SMILES: CCOC(=O)c1ccc(-c2nn(Cc3ccccc3)c3ccccc23)cc1

IC50 [1]: > 270 µM
IC50 [2]: 235 µM
IC50 [3]: 156 µM
IC50 [4]: 148 µM
SMILES: O=C(O)c1ccc(-c2nn(Cc3ccccc3)c3ccccc23)cc1

IC50 [12]: 0.00045 µM
SMILES: COc1cc(OCc2nc(-c3ccc(C(=O)N(C)C)cc3)sc2C)c2cc(-c3cn4nc(OC)sc4n3)oc2c1
fold change (FC) (Rhesus monkey [7]): 3
fold change (FC) (Rhesus monkey [8]): <=1.2
Activity (Rhesus monkey [9]): 88%
fold change (FC) (Rhesus monkey [10]): 2.6
Activity (Rhesus monkey [11]): 63%
Activity (Rhesus monkey [13]): 36%

IC50 [12]: 0.0024 µM
SMILES: COc1cnc2c(-c3nc4cc(F)c(O[C@@H]5CCC(C)(C)[C@@H]5OC(=O)Nc5ccnc(C)n5)cc4s3)cc(C)cc2n1
